Results: patent publication US20060003020A1, “Anti-metastatic ability of mibefradil and gadolinium” (THE REGENTS OF THE UNIVERSITY OF MICHIGAN, priority 2004, published 2006)

Columns and labels:
HT1080 cells [1] = experiment: T-type channel expression and cell shape of mibefradil treated HT1080 cells
Description: Thus, it was necessary to determine if blockade of T-type calcium channels on HT1080 cells caused morphological transformation.

HT1080 cells [2] = experiment: Phagokinetic track assay of HT1080 cell motility; format: cell-based; details: for ability of HT1080 cells to clear the surrounding surface / inhibitory effect on clearing of the surface: 22 hours; for ability of HT1080 cells to clear the surrounding surface: brightfield microscopy; for cell motility by swept area ratio (total swept area divided by cell area): dose response, HT1080 cells; for inhibitory effect on clearing of the surface: concentrations expected to block the relevant Ca^2+ channels
Protocol: HT1080 cells were incubated on gold particle-coated glass coverslips for 22 hours. […] A suspension of 5000 cells/ml was treated with or without Ca^2+ channel blockers then seeded onto the gold-coated coverslips. […] The tracks produced by the cells were viewed by brightfield microscopy with a 10× objective. Thirty randomly selected tracks were measured for each slide.
As cells migrated on these surfaces, the gold particles were cleared from regions of the surface and frequently picked up by the cells, making the cells appear darker and the surrounding area appear lighter when viewed by microscopy.
The size of HT1080 cells varies considerably. To evaluate cell motility, a swept area ratio was used, which calculates total swept area divided by cell area.

HT1080 cells [3] = experiment: Biocoat Matrigel invasion chamber assay of HT1080 cell invasion; format: cell-based; details: 22 hour incubation; for number of migrating cells: control cells approximately 80; for lowest dose that exhibits maximal inhibition of invasiveness: HT1080 cells; for HT1080 cell transmigration: dose response; for effect on cell invasiveness: pharmacologically appropriate doses
HT1080 cells [4] = experiment: High speed microscopy of intracellular Ca^2+ waves in HT1080 cells; format: cell-based; details: high speed imaging
Protocol: Recent studies have shown that Ca^2+ spikes of polarized neutrophils and colorectal tumor cell transfectants are associated with certain intracellular Ca^2+ waves (Kindzelskii et al., J. Immunol. 170:64-72, 2003; Wang et al., J Immunol. 170:795-804, 2003). To visualize these waves, images must be collected using very short shutter speeds to avoid image blurring due to wave motion and indo-1 diffusion while the shutter is open. […]
High speed microscopy was performed using an Axiovert 135 fluorescene microscope with a quartz condenser, quartz objective, and an AttoArc mercury lamp (Zeiss). To detect fluorescence changes in the short wavelength emission region of indo-1, a 355HT15 exciter, a 390LP dichroic reflector, and a 405DF43 emission filter were used. […]
A region of high Ca concentration, seen in the microscope as a bright spot within the cell, was brought about by the local opening of Ca^2+ channels. As indo-1 has a relatively high affinity for Ca^2+ and a finite amount of time was required for the signaling apparatus to pump-down free cytosolic Ca^2+, a low intensity “tail” was observed next to the region of bright Ca^2+ indo-1 fluorescence (i.e., the Ca^2+ wave has a low intensity tail on the side opposite to the direction of wave motion).

HT1080 cells [5] = experiment: Microfluorometry of Ca^2+ spikes/oscillations in indo-1 labeled HT1080 cells; details: concentration not given

Compound	ability of HT1080 cells to clear the surrounding surface (HT1080 cells [2]; 1.5 μM)	cell motility by swept area ratio (total swept area divided by cell area) (HT1080 cells [2])	number of migrating cells (HT1080 cells [3])	lowest dose that exhibits maximal inhibition of invasiveness (HT1080 cells [3]) [µM]	HT1080 cell transmigration (HT1080 cells [3])	propagating Ca^2+ wave after addition (HT1080 cells [4])	inhibitory effect on clearing of the surface (HT1080 cells [2])	effect on cell invasiveness (HT1080 cells [3])	also measured
COCC(=O)O[C@]1(CCN(C)CCCc2nc3ccccc3[nH]2)CCc2cc(F)ccc2[C@@H]1C(C)C [mibefradil]	significantly decreased	significantly inhibited cell motility in a dose-dependent manner	approximately 25	5	inhibited HT1080 cell transmigration in a dose-dependent fashion	no propagating Ca^2+ wave was found	–	–	cell shape / morphological transformation (HT1080 cells [1]): maintain their rounded shape; decrease of cell-swept area compared with control treated cells (HT1080 cells [2]; 5 μM): approximately 90%
[Gd+3] [Gd^3+, gadolinium (Gd^3+)]	significantly decreased	significantly inhibited cell motility in a dose-dependent manner	approximately 22	20	inhibited HT1080 cell transmigration in a dose-dependent fashion	a Ca^2+ wave was observed in cells before, but not after addition	–	–	HT1080 movement (HT1080 cells [2]; Six μM): almost completely abolished; effect on Ca^2+ spikes (HT1080 cells [5]): Ca^2+ spikes diminished then disappeared
NC(=O)c1nnn(Cc2cc(Cl)c(C(=O)c3ccc(Cl)cc3)c(Cl)c2)c1N [CAI, Carboxyamidotriazole]	–	–	–	–	–	–	–	–	ability of HT1080 cells to clear the surrounding surface (HT1080 cells [2]; 10 μM): significantly decreased
COc1ccc(CCCOC(Cn2ccnc2)c2ccc(OC)cc2)cc1 (stereo not shown) [SKF96365]	–	–	–	–	–	–	no inhibitory effect was observed	no effect	–
COC(=O)C1=C(C)NC(C)=C(C(=O)OCCN(C)Cc2ccccc2)C1c1cccc([N+](=O)[O-])c1 (stereo not shown) [nicardipine]	–	–	–	–	–	–	–	no effect	–
COc1ccc([C@@H]2Sc3ccccc3N(CCN(C)C)C(=O)[C@@H]2OC(C)=O)cc1 [diltiazem]	–	–	–	–	–	–	no inhibitory effect was observed	no effect	–
